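Grown in 96-well plates, cells were treated for 48 hours with each compound at five concentrations. Insufficient inhibition: endpoint recorded as highest concentration tested. GI50: concentration for 50% inhibition of growth. TGI marks complete inhibition of growth.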
Tests used:
Test in all cases: NCI tumour cell line growth inhibition, 48 h
CAKI-1 renal = tested on: CAKI-1 renal
KM12 colon = tested on: KM12 colon
SK-MEL-5 melanoma = tested on: SK-MEL-5 melanoma
A549 NSCLC = tested on: A549 NSCLC
NCI-H226 lung = tested on: NCI-H226 lung
RPMI-8226 leukemia = tested on: RPMI-8226 leukemia
M14 melanoma = tested on: M14 melanoma
UACC-257 melanoma = tested on: UACC-257 melanoma
MALME-3M melanoma = tested on: MALME-3M melanoma
SNB-19 CNS = tested on: SNB-19 CNS

Structure (SMILES)	TGI (CAKI-1 renal)	TGI (KM12 colon)	TGI (SK-MEL-5 melanoma)	TGI (A549 NSCLC)	TGI (NCI-H226 lung)	TGI (RPMI-8226 leukemia)	TGI (M14 melanoma)	TGI (UACC-257 melanoma)	TGI (MALME-3M melanoma)	TGI (SNB-19 CNS)	GI50 (CAKI-1 renal)	GI50 (KM12 colon)	GI50 (SK-MEL-5 melanoma)	GI50 (A549 NSCLC)	GI50 (NCI-H226 lung)	GI50 (RPMI-8226 leukemia)	GI50 (M14 melanoma)	GI50 (UACC-257 melanoma)	GI50 (MALME-3M melanoma)	GI50 (SNB-19 CNS)
COc1cc(C2c3cc4c(cc3OC(N3CCOCC3)C2C)OCO4)cc(OC)c1OC(C)=O (stereo not given)	> 100 µM	> 100 µM	> 51 µM	> 100 µM	62.7 µM	> 100 µM	> 56.8 µM	> 100 µM	> 85.7 µM	> 46.4 µM										
C/C(=N\NC(=O)N/N=C(\C)c1ccccn1)c1ccccn1	> 100 µM	> 100 µM	> 47.3 µM	> 100 µM	> 100 µM	> 100 µM	> 100 µM	> 100 µM	> 100 µM	> 100 µM										
Cc1ccc(Nc2nc(NS(=O)(=O)c3cc(C)c(Cl)cc3S)n[nH]2)cc1	> 100 µM	> 100 µM	> 100 µM	> 100 µM	> 100 µM	> 100 µM	> 100 µM	> 100 µM	> 100 µM	> 100 µM										
C=C1[C@H](OCC(C)C)[C@@H](OC(=O)C(C)CC)[C@@H](O)C(C)(C)/C=C/[C@H](C)C(=O)[C@@]2(O)C[C@H](C)[C@H](O)[C@@H]2[C@H]1OC(=O)C(C)CC (stereo not given in full)	> 18.7 µM	> 13.6 µM	> 10.8 µM	> 20 µM	> 20 µM	12 µM	> 11.1 µM	> 14.1 µM	> 20 µM	> 20 µM										
O=C(NNCc1ccccc1O)c1ccccc1O	> 100 µM	> 100 µM	25.8 µM	> 100 µM	> 100 µM	> 100 µM	24.2 µM	> 100 µM	> 100 µM	> 100 µM										
O=C1C(CN2CCCC2)CCCC1CN1CCCC1 (stereo not given)	3.11 µM	39.8 µM	30.4 µM	39.3 µM	59.1 µM	3.97 µM	3.3 µM	4.39 µM	1.27 µM	> 100 µM										
CC(C)(C)OC(=O)NCCNC(=O)CN(CC(=O)O)C1CCCCC1N(CC(=O)O)CC(=O)O (stereo not given)	> 100 µM	> 100 µM	> 100 µM	> 100 µM	> 100 µM	> 100 µM	> 100 µM	> 100 µM	> 100 µM	> 100 µM										
Cc1nc(N)nc(N)c1N1CCN(Cc2ccccc2)CC1	> 100 µM	> 100 µM	> 100 µM	> 100 µM	> 100 µM	> 95.6 µM	> 100 µM	> 100 µM	> 69 µM	> 100 µM										
COc1cccc(/C=N/n2c(Cc3ccc(Cl)cc3)n[nH]c2=O)c1	> 81.9 µM	> 100 µM	> 100 µM	> 100 µM	> 72.3 µM	> 100 µM	> 100 µM	> 100 µM	> 100 µM	67.8 µM										
Cc1ccc(CC(=O)Nc2ccc(NC(=O)CNC(=O)/C=C/c3ccc(-c4ccccc4)cc3)cc2C(=O)c2ccccc2)cc1	20.4 µM	14.5 µM	6.32 µM	5.37 µM	8.39 µM	29.2 µM	17.3 µM	22.7 µM	12.3 µM	20.3 µM										
COC1CCC(n2c([C@@H]3CCCC(=O)N3c3ccc(F)c(F)c3)nc3cc(-c4c(C)noc4C)ccc32)CC1 (stereo not given in full)	12.7 µM	30.4 µM	18.6 µM	69.5 µM	19.7 µM	8.21 µM	19.9 µM	> 100 µM	17.7 µM	> 100 µM	0.64 µM	14 µM	5.81 µM	11.8 µM	4.31 µM	0.703 µM	1.87 µM	2.54 µM	1.74 µM	9.31 µM
CC(C)=CCC/C(C)=C/CC/C(C)=C/CSc1ccc(Cl)cc1C(=O)O	43.5 µM	32.3 µM	44.9 µM	30.3 µM	36.8 µM	55.6 µM	36.5 µM	82.2 µM	38.4 µM	34.4 µM										
Cc1ccsc1/C=N/Nc1ccccn1	> 100 µM	> 100 µM	54.4 µM	> 100 µM	> 100 µM	56.6 µM	> 100 µM	> 100 µM	> 100 µM	> 100 µM										
Cc1nc2ccccc2cc1C[N+]12CN3CN(CN(C3)C1)C2	59.8 µM	45.8 µM	32.8 µM	> 100 µM	52.8 µM	> 100 µM	39.1 µM	35.5 µM	32 µM	56.5 µM										
CCOC(=O)C12C(=O)CCN1CCc1ccccc1C2C (stereo not given)	> 100 µM	> 100 µM	> 100 µM	> 100 µM	> 100 µM	> 100 µM	> 100 µM	> 100 µM	> 100 µM	> 100 µM										
CCOC(=O)/C=C1/Nc2cc(F)c(F)cc2NC1=O	> 100 µM	> 100 µM	> 100 µM	> 100 µM	> 100 µM	> 100 µM	> 100 µM	> 100 µM	> 100 µM	> 100 µM										

Reference: PubChem BioAssay (NCI)
